The values that follow come from PubChem BioAssay AID1199 (EPA DSSTox, 2008).

The source made the active and inactive calls.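 The calls were made as follows: active = a tumour-causing dose and a tumour site recorded for mice in at least one sex group; inconclusive = only government mouse studies exist and were judged inadequate; inactive = mouse studies exist but none gave tumours.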

One data set relates to mouse carcinogenicity bioassay, TD50 from CPDB. The experiment in a line: DSSTox (CPDBAS) Carcinogenic Potency Database Summary Mouse Bioassay Results.
Settings: not given
From the text: The Carcinogenic Potency Database (CPDB) is a unique and widely used international resource of the results of over 6500 chronic, long-term animal cancer tests on over 1500 chemical substances. The CPDB provides easy access to the bioassay literature, with qualitative and quantitative analyses of both positive and negative experiments that have been published over the past 50 years in the general literature and by the National Cancer Institute/National Toxicology Program. The CPDB standardizes the diverse literature of cancer bioassays that vary widely in protocol, histopathological examination and nomenclature, and in the published author's choices of what information to provide in their papers. Results are reported in the CPDB for tests in rats, mice, hamsters, dogs, and nonhuman primates, and are based on the most positive result among all experiments for each sex-species. The DSSTox CPDBAS (all species) file incorporates data from the CPDB Summary Tables for the full list of over 1500 chemical substances tested in at least one species. Summary bioassay results for Mouse (TD50, tumor sites, male, female, both sexes) are provided in the CPDB Summary Tables and the DSSTox CPDBAS file for over 1000 chemical substances.
TD50 is a standardized quantitative measure of carcinogenic potency (analogous to an LD50) and is reported in the CPDB Summary Table for each species. Activity Score for actives is computed by mapping of LOG10 (1/TD50_Mouse_mmol) activity values spanning range [MIN, MAX] onto Integer 1-100 Activity Score range, where 100 is highest potency and 1 is lowest: Activity Score = 100 * INTEGER[(log10(1/Activity) - MIN)/(MAX […] MIN)]. If activity is reported but no TD50_Mouse_mmol value is computed, such as for a mixture, the Activity Score is assigned the activity value "50". […] Target sites are reported for each sex-species group with a positive result in the CPDB on the basis of a positive author's opinion for the particular site, using all results from both the general literature and NCI/NTP bioassays. If a chemical has two or more target sites listed, the results may be from different experiments, and a single site may be a target organ in more than one experiment, as well. Blank entry in TargetSites field indicates no results reported.
For the compound `CN(N=O)C(N)=O`, the Potency was 0.0119 mmol/kg/day.
Turning to `O=NN1CCCC1`, the Potency is 0.00678 mmol/kg/day.
The same measure, in the same setting: as for `Cc1cc(O)c(C)c2c1OC(C)(CCCC(C)CCCC(C)CCCC(C)C)CC2` (stereo not given), the figure is 8.66 mmol/kg/day.

The data set is the same for the next values; noted with them: TD50_Mouse_Note: TD50_Mouse_mmol was not calculated for this mixture, but Activiity Score is assigned value of 50 to indicate active.
For `COc1cc2c(c3oc(=O)c4c(c13)CCOC4=O)C1C=COC1O2` (stereo not given), the outcome is “active; hematopoietic system”.

The same data set, now with this note: TD50_Mouse_Note: TD50 is harmonic mean of more than one positive test; TargetSites_Mouse_Female: adrenal gland; liver; vascular system.
Take `Oc1c(Cl)c(Cl)c(Cl)c(Cl)c1Cl`: the Potency was 0.0901 mmol/kg/day.

The data set is the same for the next values; noted with them: TD50_Mouse_Note: TD50 is harmonic mean of more than one positive test; TargetSites_Mouse_Female: harderian gland; stomach.
Take `C=C(C)CCl`: the Potency was 11 mmol/kg/day.

The data set is the same for the next values; noted with them: TD50_Mouse_Note: TD50 is harmonic mean of more than one positive test; TargetSites_Mouse_Female: liver.
Take `Cc1cc(O)c2c(c1O)C(=O)C13C(=C2O)C(=O)C2C(O)C1C1C(O)C3C(=O)C3=C(O)c4c(O)cc(C)c(O)c4C(=O)C321` (stereo not given): the Potency is 0.0324 mmol/kg/day.
For the compound `CCCCC(CC)COC(=O)c1ccccc1C(=O)OCC(CC)CCCC` (stereo not given), the Potency is 1.79 mmol/kg/day.
The same measure, in the same setting: in the case of `Nc1cc(Cl)c(N)c(Cl)c1` it was 4.54 mmol/kg/day; in that of `Cc1c([N+](=O)[O-])c(C)c([N+](=O)[O-])c(C(C)(C)C)c1[N+](=O)[O-]`, 0.427 mmol/kg/day.
On to `O=[N+]([O-])c1ccc(Oc2ccc(Cl)cc2Cl)cc1`, for which the Potency was 0.405 mmol/kg/day.
Same read-out and setting: as for `ClC1(Cl)C2(Cl)C3(Cl)C4(Cl)C(Cl)(Cl)C5(Cl)C3(Cl)C1(Cl)C5(Cl)C24Cl` (stereo not given), the figure is 0.00266 mmol/kg/day; as for `CN1CCCC1=O`, 20.7 mmol/kg/day.
On the same count and under the same terms, in the case of `ClC1=C(Cl)C2(Cl)C3C(Cl)C=CC3C1(Cl)C2(Cl)Cl` (stereo not given) it was 0.00324 mmol/kg/day.

Still in this data set, the particulars now being: TD50_Mouse_Note: TD50 is harmonic mean of more than one positive test; TargetSites_Mouse_Female: liver; vascular system.
For `Oc1c(Cl)c(Cl)c(Cl)c(Cl)c1Cl`, the Potency was 0.0864 mmol/kg/day.
For `Cc1cc2c(nc1N)[nH]c1ccccc12`, the Potency is 0.0863 mmol/kg/day.

Still in this data set, the particulars now being: TD50_Mouse_Note: TD50 is harmonic mean of more than one positive test; TargetSites_Mouse_Female: lung.
In the case of `O=[O+][O-]`, the Potency was 0.0392 mmol/kg/day.
Same read-out and setting: as for `NC(=O)NNc1ccccc1`, the figure is 1.09 mmol/kg/day; as for `C=C1C/C(=C/C)C(=O)O[C@@H]2CCN3CC=C(COC(=O)[C@@]1(O)CO)[C@H]23`, 0.00564 mmol/kg/day.

Staying with this data set, now noted: TD50_Mouse_Note: TD50 is harmonic mean of more than one positive test; TargetSites_Mouse_Female: lung; vascular system.
Take `CCN(N)C=O`: the Potency is 0.0318 mmol/kg/day.

The data set is the same for the next values; noted with them: TD50_Mouse_Note: TD50 is harmonic mean of more than one positive test; TargetSites_Mouse_Female: ovary.
Consider `CC/C(=C(\c1ccccc1)c1ccc(OCCN(C)C)cc1)c1ccccc1`, for which the Potency is 0.00779 mmol/kg/day.

The same data set, now with this note: TD50_Mouse_Note: TD50 is harmonic mean of more than one positive test; TargetSites_Mouse_Female: stomach.
`C=C(C)CCl`: the Potency is 0.858 mmol/kg/day.
In the case of `c1cc(OCC2CO2)cc(OCC2CO2)c1` (stereo not given), the Potency was 0.109 mmol/kg/day.
In the case of `CCCCOCCO`, the Potency was 14.5 mmol/kg/day.

The same data set, now with this note: TD50_Mouse_Note: TD50 is harmonic mean of more than one positive test; TargetSites_Mouse_Female: vagina.
On to `Cc1cn([C@H]2C[C@H](N=[N+]=[N-])[C@@H](CO)O2)c(=O)[nH]c1=O`, for which the Potency is 1.11 mmol/kg/day.

Still in this data set, the particulars now being: TD50_Mouse_Note: TD50 is harmonic mean of more than one positive test; TargetSites_Mouse_Female: vascular system.
Consider `CC(=O)NNc1ccccc1`, for which the Potency is 0.341 mmol/kg/day.

Staying with this data set, now noted: TD50_Mouse_Note: TD50 is harmonic mean of more than one positive test; greater than ten-fold variation among TD50 values for positive res; TargetSites_Mouse_Female: hematopoietic system; lung; stomach; urinary bladder.
With `O=CNc1nc(-c2ccc([N+](=O)[O-])o2)cs1`, the Potency was 0.0824 mmol/kg/day.

Still in this data set, the particulars now being: TD50_Mouse_Note: TD50 is harmonic mean of more than one positive test; greater than ten-fold variation among TD50 values for positive res; TargetSites_Mouse_Female: liver; lung.
In the case of `O=S(=O)(O)O`, the Potency was 0.0583 mmol/kg/day.

Still in this data set, the particulars now being: TD50_Mouse_Note: TD50 is harmonic mean of more than one positive test; greater than ten-fold variation among TD50 values for positive res; TargetSites_Mouse_Female: urinary bladder.
With `O=c1cc[nH]c(=O)[nH]1`, the Potency was 24.5 mmol/kg/day.

The data set is the same for the next values; noted with them: TD50_Mouse_Note: no positive results; TargetSites_Mouse_Female: no positive results.
For the compound `Nc1ccc([N+](=O)[O-])cc1`, the outcome is “inactive; no positive results”.
`CC(=O)C1C(=O)C=C(C)OC1=O` (stereo not given): the outcome was “inactive; no positive results”.
On the same count and under the same terms, as for `OCC(CO)N[C@H]1C[C@](O)(CO)[C@@H](O)[C@H](O)[C@H]1O`, the entry is “inactive; no positive results”.
In the case of `BrC(Br)Br`, the outcome is “inactive; no positive results”.
Still for that read-out and setting: as for `CC(Oc1cc(Cl)c(Cl)cc1Cl)C(=O)O` (stereo not given), the entry is “inactive; no positive results”.
Same read-out and setting: in the case of `Nc1cc([N+](=O)[O-])ccc1O` it was “inactive; no positive results”; in that of `c1ccc2cc(Nc3ccc(Nc4ccc5ccccc5c4)cc3)ccc2c1`, “inactive; no positive results”; in that of `IC(I)I`, “inactive; no positive results”.
Regarding `CC(O)CN(C)c1ccc(NN)nn1` (stereo not given), the outcome was “inactive; no positive results”.
Same read-out and setting: in the case of `Oc1c(Cl)c(Cl)c(Cl)c(Cl)c1Cl` it was “inactive”.
As for `O=C(O)CCCC/C=C(\c1ccccc1)c1cccnc1`, the outcome was “inactive; no positive results”.
For the compound `C#C[C@]1(O)CC[C@H]2[C@@H]3CCc4cc(OC)ccc4[C@H]3CC[C@@]21C`, the outcome was “inactive; no positive results”.
On to `C=CC`, for which the outcome is “inactive; no positive results”.
On to `Clc1ccc(C(c2ccccc2Cl)C(Cl)Cl)cc1` (stereo not given), for which the outcome is “inactive; no positive results”.
For the compound `OC[C@H]1O[C@@](CO)(O[C@H]2O[C@H](CO)[C@@H](O)[C@H](O)[C@H]2O)[C@@H](O)[C@@H]1O`, the outcome is “inactive; no positive results”.
Still for that read-out and setting: as for `CCOC(=O)CC(SP(=S)(OC)OC)C(=O)OCC` (stereo not given), the entry is “inactive; no positive results”; as for `CC1=C(C(=O)OC(C)C)C(c2cccc([N+](=O)[O-])c2)C(C(=O)OC2CN(C(c3ccccc3)c3ccccc3)C2)=C(N)N1` (stereo not given), “inactive; no positive results”; as for `O=S1(=O)CC=CC1`, “inactive; no positive results”.
Same read-out and setting: as for `CCn1cc(C(=O)O)c(=O)c2ccc(C)nc21`, the entry is “inactive; no positive results”; as for `c1ccc2c(c1)Nc1ccccc1S2`, “inactive; no positive results”.
Consider `CC(C)C(C(=O)OC(C#N)c1cccc(Oc2ccccc2)c1)c1ccc(Cl)cc1` (stereo not given), for which the outcome is “inactive; no positive results”.
Same read-out and setting: in the case of `ClC1=C(Cl)[C@]2(Cl)[C@@H]3[C@H]4C[C@H]([C@@H]5O[C@H]45)[C@@H]3[C@@]1(Cl)C2(Cl)Cl` it was “inactive; no positive results”; in that of `[Cl-].[Cl-].[Hg+2]`, “inactive; no positive results”.
Take `Nc1ccc([N+](=O)[O-])cc1O`: the outcome was “inactive; no positive results”.
Same read-out and setting: in the case of `O=C(c1ccccc1)C(O)c1ccccc1` (stereo not given) it was “inactive; no positive results”; in that of `NC(=O)Cc1cccc2ccccc12`, “inactive; no positive results”.
The same measure, in the same setting: in the case of `CCCCNC(N)=O` it was “inactive; no positive results”.
With `CCCOC(=O)C1c2cc3c(cc2CC(C)C1C(=O)OCCC)OCO3` (stereo not given), the outcome was “inactive; no positive results”.
On the same count and under the same terms, as for `S=C(NC1CCCCC1)NC1CCCCC1`, the entry is “inactive; no positive results”; as for `CCN(CC)CC#CC(C)(C)OC(=O)C(O)(c1ccccc1)C1CCCCC1` (stereo not given), “inactive; no positive results”; as for `CCC(Br)(CC)C(=O)NC(N)=O`, “inactive; no positive results”.
Turning to `CS(=O)(=O)OCCCNCCCOS(C)(=O)=O`, the outcome was “inactive; no positive results”.
With `CC(=O)Oc1ccccc1C(=O)O`, the outcome is “inactive; no positive results”.
On the same count and under the same terms, in the case of `CCc1cccc2c3c([nH]c12)C(CC)(CC(=O)O)OCC3` (stereo not given) it was “inactive; no positive results”.
On the same count and under the same terms, as for `O=S(=O)(O)c1ccc(N=Nc2cc(S(=O)(=O)O)c3ccccc3c2O)c2ccccc12`, the entry is “inactive; no positive results”.

The same data set, now with this note: TD50_Mouse_Note: positive test results only by intraperitoneal or intravenous injection; TD50 is harmonic mean of more than one positive; TargetSites_Mouse_Female: hematopoietic system; lung; uterus; vascular system.
Regarding `CN(C)/N=N/c1nc[nH]c1C(N)=O`, the Potency is 0.0053 mmol/kg/day.

The same data set, now with this note: TD50_Mouse_Note: positive test results only by intraperitoneal or intravenous injection; TD50 is harmonic mean of more than one positive; TargetSites_Mouse_Female: lung.
Regarding `N[C@@H](Cc1ccc(N(CCCl)CCCl)cc1)C(=O)O`, the Potency is 0.000491 mmol/kg/day.

The same data set, now with this note: TD50_Mouse_Note: positive test results only by intraperitoneal or intravenous injection; TargetSites_Mouse_Female: hematopoietic system.
With `CC(CN1CC(=O)NC(=O)C1)N1CC(=O)NC(=O)C1` (stereo not given), the Potency was 0.0883 mmol/kg/day.

Still in this data set, the particulars now being: TargetSites_Mouse_Female: hematopoietic system.
As to `NNc1nc(-c2ccc(N)cc2)cs1`, the Potency was 0.0548 mmol/kg/day.

The same data set, now with this note: TargetSites_Mouse_Female: liver.
With `Nc1ccc(N=Nc2ccccc2)c(N)n1`, the Potency is 0.285 mmol/kg/day.
On the same count and under the same terms, in the case of `O=C/C=C/O` it was 0.15 mmol/kg/day; in that of `CCCCCC`, 352 mmol/kg/day; in that of `CC(=O)Nc1ccc(N=Nc2cc(C)ccc2O)cc1`, 3.79 mmol/kg/day.

The data set is the same for the next values; noted with them: TargetSites_Mouse_Female: no positive results.
Consider `O=[N+]([O-])c1c(Cl)c(Cl)c(Cl)c(Cl)c1Cl`, for which the Potency is 0.241 mmol/kg/day.

Staying with this data set, now noted: TargetSites_Mouse_Female: stomach.
For `CC(Cl)C=O` (stereo not given), the Potency was 0.139 mmol/kg/day.

Still in this data set, the particulars now being: TargetSites_Mouse_Female: vascular system.
Consider `Nc1ccccc1-c1ccccc1`, for which the Potency is 5.45 mmol/kg/day.
